In one assay the target is T1, Human macrophage mannose receptor 1 (MRC1) (Homo sapiens, UniProt P22897).
T1 sequence (P22897 19-1456): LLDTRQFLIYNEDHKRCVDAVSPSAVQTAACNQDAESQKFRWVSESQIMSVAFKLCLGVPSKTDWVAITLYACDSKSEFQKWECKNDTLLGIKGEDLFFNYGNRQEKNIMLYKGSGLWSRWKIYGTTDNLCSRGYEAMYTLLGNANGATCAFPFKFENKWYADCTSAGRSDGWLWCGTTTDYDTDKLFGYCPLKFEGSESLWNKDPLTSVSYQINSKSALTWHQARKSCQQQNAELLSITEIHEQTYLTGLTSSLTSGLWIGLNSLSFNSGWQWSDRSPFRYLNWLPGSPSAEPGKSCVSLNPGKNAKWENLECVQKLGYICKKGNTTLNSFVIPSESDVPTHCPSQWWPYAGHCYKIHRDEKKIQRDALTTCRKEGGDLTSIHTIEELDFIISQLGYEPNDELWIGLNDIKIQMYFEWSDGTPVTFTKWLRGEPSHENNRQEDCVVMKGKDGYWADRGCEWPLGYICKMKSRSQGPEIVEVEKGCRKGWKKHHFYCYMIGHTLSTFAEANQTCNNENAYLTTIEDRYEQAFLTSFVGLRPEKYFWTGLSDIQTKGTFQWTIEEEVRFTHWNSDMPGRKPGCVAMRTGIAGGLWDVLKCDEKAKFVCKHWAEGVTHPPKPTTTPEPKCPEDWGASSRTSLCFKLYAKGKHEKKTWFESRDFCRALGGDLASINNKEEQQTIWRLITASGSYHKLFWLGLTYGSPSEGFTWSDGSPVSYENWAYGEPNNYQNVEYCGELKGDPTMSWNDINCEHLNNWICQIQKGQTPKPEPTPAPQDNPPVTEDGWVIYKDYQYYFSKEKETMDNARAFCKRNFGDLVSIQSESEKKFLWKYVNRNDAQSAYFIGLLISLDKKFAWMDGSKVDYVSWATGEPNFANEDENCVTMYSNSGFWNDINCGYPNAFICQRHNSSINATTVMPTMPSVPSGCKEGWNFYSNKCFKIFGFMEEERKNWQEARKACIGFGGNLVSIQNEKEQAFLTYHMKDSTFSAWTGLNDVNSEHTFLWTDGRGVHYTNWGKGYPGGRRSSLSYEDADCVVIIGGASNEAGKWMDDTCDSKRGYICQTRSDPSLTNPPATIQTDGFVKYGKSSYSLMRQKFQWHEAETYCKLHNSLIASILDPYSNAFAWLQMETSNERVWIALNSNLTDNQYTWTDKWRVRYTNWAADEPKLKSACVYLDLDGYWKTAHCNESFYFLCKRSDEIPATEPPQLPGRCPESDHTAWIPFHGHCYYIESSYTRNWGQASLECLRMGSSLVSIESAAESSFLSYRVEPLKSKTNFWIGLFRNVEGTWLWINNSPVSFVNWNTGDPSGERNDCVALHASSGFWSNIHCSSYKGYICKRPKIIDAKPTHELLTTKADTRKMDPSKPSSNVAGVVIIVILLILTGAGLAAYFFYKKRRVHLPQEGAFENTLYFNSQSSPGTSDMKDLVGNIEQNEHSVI
Briefly: MRC1 competition binding assay with Eu-mannosylated-BSA. Conditions: Method E: 96-well plate; IP = inflection point; read-out: MRC1 Binding IP.
Consider `CC(=O)[C@H](CCCCN)NC(=O)CCCCC(=O)N[C@@H](CCC(=O)NCCO[C@H]1O[C@H](CO)[C@@H](O)[C@H](O)[C@@H]1O)C(=O)N[C@@H](CCC(=O)NCCO[C@H]1O[C@H](CO)[C@@H](O)[C@H](O)[C@@H]1O)C(=O)N[C@@H](CCC(=O)NCCO[C@H]1O[C@H](CO)[C@@H](O)[C@H](O)[C@@H]1O)C(=O)NCCO[C@H]1O[C@H](CO[C@H]2O[C@H](CO)[C@@H](O)[C@H](O)[C@@H]2O)[C@@H](O)[C@H](O[C@H]2O[C@H](CO)[C@@H](O)[C@H](O)[C@@H]2O)[C@@H]1O` [IOC-23], for which the IC50 stood at 37.2 nM.
Turning to `CC(=O)[C@H](CCCCN)NC(=O)CCCCC(=O)NCC(=O)N[C@@H](CCC(=O)N[C@@H](CCC(=O)NCCCCCC(=O)NCCO[C@H]1O[C@H](CO[C@H]2O[C@H](CO)[C@@H](O)[C@H](O)[C@@H]2O)[C@@H](O)[C@H](O[C@H]2O[C@H](CO)[C@@H](O)[C@H](O)[C@@H]2O)[C@@H]1O)C(=O)NCCCCCC(=O)NCCOC1O[C@H](CO[C@H]2O[C@H](CO)[C@@H](O)[C@H](O)[C@@H]2O)[C@@H](O)[C@H](O[C@H]2O[C@H](CO)[C@@H](O)[C@H](O)[C@@H]2O)[C@@H]1O)C(=O)NCCCCCC(=O)NCCO[C@H]1O[C@H](CO[C@H]2O[C@H](CO)[C@@H](O)[C@H](O)[C@@H]2O)[C@@H](O)[C@H](O[C@H]2O[C@H](CO)[C@@H](O)[C@H](O)[C@@H]2O)[C@@H]1O` (stereo partly drawn) [IOC-5], the IC50 is 9.12 nM.

Still in this assay, the particulars now being: Method F: 384-well plate; IP = inflection point; read-out: MRC1 Binding IP.
With `CC(=O)[C@H](CCCCN)NC(=O)CCCCC(=O)NCC(=O)N[C@@H](CCC(=O)N[C@@H](CCC(=O)NCCCCCC(=O)N(CCOC1O[C@H](CO)[C@@H](O)[C@H](O)[C@@H]1O)CCO[C@H]1O[C@H](CO)[C@@H](O)[C@H](O)[C@@H]1O)C(=O)NCCCCCC(=O)N(CCOC1O[C@H](CO)[C@@H](O)[C@H](O)[C@@H]1O)CCOC1O[C@H](CO)[C@@H](O)[C@H](O)[C@@H]1O)C(=O)NCCCCCC(=O)NCCO[C@H]1O[C@H](CO[C@H]2O[C@H](CO)[C@@H](O)[C@H](O)[C@@H]2O)[C@@H](O)[C@H](O[C@H]2O[C@H](CO)[C@@H](O)[C@H](O)[C@@H]2O)[C@@H]1O` (stereo partly drawn) [IOC-33], the IC50 stood at 10 nM.
The same measure, in the same setting: then `CC(=O)[C@H](CCCCN)NC(=O)CCCCC(=O)NCC(=O)N[C@@H](CCC(=O)N[C@@H](CCC(=O)NCCCCCC(=O)N(CCOC1O[C@H](CO)[C@@H](O)[C@H](O)[C@@H]1O)CCO[C@H]1O[C@H](CO)[C@@H](O)[C@H](O)[C@@H]1O)C(=O)NCCCCCC(=O)N(CCOC1O[C@H](CO)[C@@H](O)[C@H](O)[C@@H]1O)CCOC1O[C@H](CO)[C@@H](O)[C@H](O)[C@@H]1O)C(=O)NCCCCCC(=O)NCCO[C@H]1O[C@H](CO[C@H]2O[C@H](CO)[C@@H](O)[C@H](O)[C@@H]2O)[C@@H](O)[C@H](O[C@H]2O[C@H](CO)[C@@H](O)[C@H](O)[C@@H]2O)[C@@H]1O` (stereo partly drawn) [IOC-32], with 604 nM; and `CC(=O)[C@H](CCCCN)NC(=O)CCCCC(=O)NCC(=O)N[C@@H](CCC(=O)N[C@@H](CCC(=O)NCCCCCC(=O)N(CCOC1O[C@H](CO)[C@@H](O)[C@H](O)[C@@H]1O)CCO[C@H]1O[C@H](CO)[C@@H](O)[C@H](O)[C@@H]1O)C(=O)NCCCCCC(=O)N(CCOC1O[C@H](CO)[C@@H](O)[C@H](O)[C@@H]1O)CCOC1O[C@H](CO)[C@@H](O)[C@H](O)[C@@H]1O)C(=O)NCCCCCC(=O)NCCO[C@H]1O[C@H](CO[C@H]2O[C@H](CO)[C@@H](O)[C@H](O)[C@@H]2O)[C@@H](O)[C@H](O[C@H]2O[C@H](CO)[C@@H](O)[C@H](O)[C@@H]2O)[C@@H]1O` (stereo partly drawn) [IOC-27], with 20.7 nM; and `CC(=O)[C@H](CCCCN)NC(=O)CCCCC(=O)NCC(=O)N[C@@H](CCC(=O)N[C@@H](CCC(=O)NCCCCCC(=O)N(CCOC1O[C@H](CO)[C@@H](O)[C@H](O)[C@@H]1O)CCOC1O[C@H](CO)[C@@H](O)[C@H](O)[C@@H]1O)C(=O)NCCCCCC(=O)N(CCOC1O[C@H](CO)[C@@H](O)[C@H](O)[C@@H]1O)CCOC1O[C@H](CO)[C@@H](O)[C@H](O)[C@@H]1O)C(=O)NCCCCCC(=O)NCCO[C@H]1O[C@H](CO[C@H]2O[C@H](CO)[C@@H](O)[C@H](O)[C@@H]2O)[C@@H](O)[C@H](O[C@H]2O[C@H](CO)[C@@H](O)[C@H](O)[C@@H]2O)[C@@H]1O` (stereo partly drawn) [IOC-38], with 9.78 nM.

Source of the values: patent US12427187B2, “Glucose-responsive insulin conjugates” (priority 2019, dated 2025).
